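Where inhibition never reached the appropriate level, the endpoint shown equals the highest concentration tested. Otherwise, values were interpolated linearly from a five-concentration, 48-hour dose response in 96-well plates. GI50: concentration for 50% inhibition of growth. Definition used: TGI = concentration required for complete inhibition of growth.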
Tests used:
Test in all cases: growth of human tumour cells (NCI), 48 h
[1] = system: HOP-92 NSCLC
[2] = system: HS 578T breast
[3] = system: IGROV1 ovarian
[4] = system: K-562 leukemia
[5] = system: LOX IMVI melanoma
[6] = system: MCF7 breast
[7] = system: MOLT-4 leukemia
[8] = system: SF-268 CNS

Compound	GI50 [1]	TGI [1]	GI50 [2]	TGI [2]	GI50 [3]	TGI [3]	GI50 [4]	TGI [4]	GI50 [5]	TGI [5]	GI50 [6]	TGI [6]	GI50 [7]	TGI [7]	GI50 [8]	TGI [8]
CCCN(CCS(C)(=O)=O)Cc1ccc(-c2ccc3ncnc(Nc4ccc(OCc5cccc(F)c5)c(Cl)c4)c3c2)o1	> 25 µM	> 25 µM	> 25 µM	> 25 µM	16.5 µM	> 25 µM	9.49 µM	> 25 µM	> 25 µM	> 25 µM	> 20.2 µM	> 25 µM	7.31 µM	> 25 µM	> 25 µM	> 25 µM
O=C(OCc1ccc2ccccc2n1)c1cn(C2CC2)c2cc(N3CCN(Cc4ccc5ccccc5n4)CC3)c(F)cc2c1=O	> 100 µM	> 100 µM	40.6 µM	> 100 µM	> 93.2 µM	> 100 µM	> 53.5 µM	> 100 µM	29 µM	> 89.5 µM	35 µM	> 92.7 µM	> 100 µM	> 100 µM	> 62.5 µM	> 100 µM
COc1cc(N2C(=O)[C@H](O)C2c2ccc(SC)cc2)cc(OC)c1OC (some centres not stated)	71.4 µM	> 100 µM	< 0.01 µM	> 100 µM	< 0.01 µM	> 100 µM	< 0.01 µM	> 100 µM	< 0.01 µM	> 100 µM	< 0.01 µM	> 100 µM	0.0334 µM	53.4 µM	< 0.01 µM	59.3 µM
C/C(=C\c1ccc2ccccc2c1)[N+](=O)[O-]	1.96 µM	5.06 µM	2.54 µM	9.26 µM	–	–	2.23 µM	7.99 µM	1.19 µM	2.8 µM	–	–	2.61 µM	6.48 µM	1.91 µM	3.72 µM
N#CC1(C(N)=O)C(c2ccc(Cl)cc2)CC(=O)CC1c1ccc(Cl)cc1 (configuration not stated)	16.4 µM	32.1 µM	23.3 µM	61.6 µM	18.1 µM	33.7 µM	31.4 µM	> 100 µM	17 µM	33.3 µM	17.4 µM	31.7 µM	17.1 µM	54.3 µM	18.5 µM	34.3 µM
N#Cc1c(N2CCOCC2)nc(=S)[nH]c1-c1ccco1	1.79 µM	> 100 µM	2.08 µM	17.3 µM	1.86 µM	13 µM	24.7 µM	> 100 µM	6.68 µM	> 100 µM	2.12 µM	> 100 µM	4.64 µM	51.1 µM	10.9 µM	> 100 µM
COc1ccc(-c2[nH]c3ccccc3c2-c2ccc(OC)cc2)cc1	2.24 µM	9.4 µM	4.41 µM	43.8 µM	11.2 µM	27.5 µM	2.89 µM	10.4 µM	3.77 µM	14.8 µM	2.87 µM	12.4 µM	2.68 µM	9.62 µM	3.99 µM	15.1 µM
O=C1c2c(c3c4ccccc4[nH]c3c3ccc4ccccc4c23)C(=O)N1CCN1CCNCC1	1.83 µM	4.14 µM	–	–	1.46 µM	2.84 µM	1.44 µM	3.09 µM	1.63 µM	3.11 µM	1 µM	2.42 µM	0.487 µM	1.88 µM	1.86 µM	4.03 µM
